This test deals with T1, Human complement C1s enzyme (Homo sapiens, UniProt P09871).
T1 sequence (P09871 438-688 limits assumed): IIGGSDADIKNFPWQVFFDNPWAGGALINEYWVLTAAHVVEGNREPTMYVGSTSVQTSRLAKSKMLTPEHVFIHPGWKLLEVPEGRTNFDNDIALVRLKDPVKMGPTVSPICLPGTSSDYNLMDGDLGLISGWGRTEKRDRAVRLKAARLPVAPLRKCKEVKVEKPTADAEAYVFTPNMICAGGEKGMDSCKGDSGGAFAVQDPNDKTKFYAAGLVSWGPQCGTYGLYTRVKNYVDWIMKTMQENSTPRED
T1 sequence (P09871 16-437 partner limits assumed): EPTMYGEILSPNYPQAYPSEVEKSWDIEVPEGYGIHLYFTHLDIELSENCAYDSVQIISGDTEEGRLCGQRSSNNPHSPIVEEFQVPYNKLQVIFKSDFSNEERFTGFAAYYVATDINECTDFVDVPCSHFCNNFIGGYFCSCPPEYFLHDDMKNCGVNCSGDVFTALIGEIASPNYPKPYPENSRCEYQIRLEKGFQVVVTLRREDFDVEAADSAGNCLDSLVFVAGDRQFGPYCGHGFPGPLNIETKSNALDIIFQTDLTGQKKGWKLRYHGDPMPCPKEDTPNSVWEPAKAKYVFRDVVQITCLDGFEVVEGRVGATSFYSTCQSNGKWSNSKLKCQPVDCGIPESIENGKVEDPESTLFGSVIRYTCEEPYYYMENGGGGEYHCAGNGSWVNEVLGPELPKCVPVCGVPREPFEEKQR
In words: Human C1s enzyme assay. It counts as biochemical. The conditions noted are these: human complement C1s enzyme 1.16 nM, substrate Z-L-Lys-SBzl 100 μM, 5 min preincubation; read-out: IC50 (Stars), C1s Inhibiting Activity. A digest of the protocol: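 Serum-purified human C1s (1.16 nM final) preincubated 5 min at room temperature with compound in 50 mM Tris, 1 M NaCl, pH 7.5. Z-L-Lys-SBzl and DTNB added at 100 μM each; A405 followed every 30 s for 30 min, and IC50 obtained by nonlinear regression of reaction rates.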

SMILES strings stand for the structures. A value given as a limit tells only on which side of the number the result lay.

Take `COC[C@@]1(F)C[C@@H](C(=O)N[C@H](C)c2cc3cnccc3[nH]2)N(C(=O)CNC(=O)c2ccc(Oc3ccc(F)cc3)cc2)C1` [Compound 175, (2S,4R)-N-((R)-1-(1H-pyrrolo[3,2-c]pyridin-2-yl)ethyl)-4-fluoro-1-((4-(4-fluorophenoxy)benzoyl)glycyl)-4-(methoxymethyl)pyrrolidine-2-carboxamide]: the IC50 is < 100 nM.

As for `Cc1ccc(-c2cnc(C(=O)NCC(=O)N3CC4(C[C@H]3C(=O)NCc3cc5cnccc5[nH]3)OCCO4)c(F)c2)cc1` [Compound 108, (S)-N-((1H-pyrrolo[3,2-c]pyridin-2-yl)methyl)-7-((3-fluoro-5-(p-tolyl)picolinoyl)glycyl)-1,4-dioxa-7-azaspiro[4.4]nonane-8-carboxamide], the concentration for half-maximal inhibition (IC50) was 100 to 1000 nM.

As for `C[C@@H](NC(=O)[C@@H]1C[C@@H](S(=O)(=O)C2CC2)CN1C(=O)CNC(=O)c1ccc2c(c1)Oc1ccccc1S2)c1cc2cnccc2[nH]1` [Compound 174, (2S,4R)-N-((R)-1-(1H-pyrrolo[3,2-c]pyridin-2-yl)ethyl)-4-(cyclopropylsulfonyl)-1-((phenoxathiine-3-carbonyl)glycyl)pyrrolidine-2-carboxamide], the IC50 was < 100 nM.

Take `C[C@@H](NC(=O)[C@@H]1C[C@@H](OC(F)F)CN1C(=O)CNC(=O)c1ccc(Oc2ccccc2)cc1)c1cc2cnccc2[nH]1` [Compound 39, (2S,4R)-N-((R)-1-(1H-pyrrolo[3,2-c]pyridin-2-yl)ethyl)-4-(difluoromethoxy)-1-((4-phenoxybenzoyl)glycyl)pyrrolidine-2-carboxamide]: the IC50 is < 100 nM.

For the compound `C[C@H]1C[C@@H](C(=O)N[C@H](C)c2cc3cnccc3[nH]2)N(C(=O)CNC(=O)c2ccc3c(c2)-c2ccccc2C3(F)F)C1` [Compound 166, (2S,4S)-N-((R)-1-(1H-pyrrolo[3,2-c]pyridin-2-yl)ethyl)-1-((9,9-difluoro-9H-fluorene-3-carbonyl)glycyl)-4-methylpyrrolidine-2-carboxamide], the IC50 is < 100 nM.

As to `Cc1ccc(COc2cccc(C(=O)NCC(=O)N3C[C@H](OC(F)F)C[C@H]3C(=O)NCc3cc4cnccc4[nH]3)c2)c(F)c1` [Compound 325, (2S,4R)-N-((1H-pyrrolo[3,2-c]pyridin-2-yl)methyl)-4-(difluoromethoxy)-1-((3-((2-fluoro-4-methylbenzyl)oxy)benzoyl)glycyl)pyrrolidine-2-carboxamide], the IC50 was < 100 nM.

Take `C[C@@]12C[C@@H]1N(C(=O)CNC(=O)c1ccc(Oc3ccccc3)cc1)[C@H](C(=O)NCc1cc3cnccc3[nH]1)C2` [Compound 28, (1S,3S,5S)-N-((1H-pyrrolo[3,2-c]pyridin-2-yl)methyl)-5-methyl-2-((4-phenoxybenzoyl)glycyl)-2-azabicyclo[3.1.0]hexane-3-carboxamide]: the concentration for half-maximal inhibition (IC50) was < 100 nM.

For the compound `Nc1noc2cc(CNC(=O)[C@@H]3C[C@@H](OC(F)F)CN3C(=O)CNC(=O)c3ccc4c(c3)Oc3ccccc3S4)ccc12` [Compound 232, (2S,4R)-N-((3-aminobenzo[d]isoxazol-6-yl)methyl)-4-(difluoromethoxy)-1-((phenoxathiine-3-carbonyl)glycyl)pyrrolidine-2-carboxamide], the IC50 is > 1000 nM.

For the compound `C[C@@]12C[C@@H]1N(C(=O)CNC(=O)c1ccc3c(c1)Oc1ccccc1S3)[C@H](C(=O)NCc1ccc3nc(N)[nH]c3c1)C2` [Compound 181, (1S,3S,5S)-N-((2-amino-1H-benzo[d]imidazol-6-yl)methyl)-5-methyl-2-((phenoxathiine-3-carbonyl)glycyl)-2-azabicyclo[3.1.0]hexane-3-carboxamide], the IC50 was < 100 nM.

Regarding `C[C@@H](NC(=O)[C@@H]1CC2(CN1C(=O)CN1Cc3ccc(-c4ccc(F)cc4F)cc3C1=O)OCCO2)c1cc2cnccc2[nH]1` [Compound 126, (S)-N-((R)-1-(1H-pyrrolo[3,2-c]pyridin-2-yl)ethyl)-7-(2-(6-(2,4-difluorophenyl)-1-oxoisoindolin-2-yl)acetyl)-1,4-dioxa-7-azaspiro[4.4]nonane-8-carboxamide], the IC50 is < 100 nM.

Take `C[C@@]12C[C@@H]1N(C(=O)CNC(=O)CCCOc1ccccc1)[C@H](C(=O)N[C@@H]1CCN(C(=O)CCN)C1)C2` [Compound 60, (1S,3S,5S)-N-((R)-1-(3-aminopropanoyl)pyrrolidin-3-yl)-5-methyl-2-((4-phenoxybutanoyl)glycyl)-2-azabicyclo[3.1.0]hexane-3-carboxamide]: the concentration for half-maximal inhibition (IC50) was > 1000 nM.

Take `C[C@@H](NC(=O)[C@@H]1CC2(CCCC2)CN1C(=O)CNC(=O)c1ccc2c(c1)Oc1ccccc1S2)c1cc2cnccc2[nH]1` [Compound 131, (S)-N-((R)-1-(1H-pyrrolo[3,2-c]pyridin-2-yl)ethyl)-2-((phenoxathiine-3-carbonyl)glycyl)-2-azaspiro[4.4]nonane-3-carboxamide]: the IC50 is < 100 nM.

As for `C[C@@H](NC(=O)[C@@H]1CC2(CN1C(=O)CNC(=O)c1ccc(-c3ccccc3)cc1)OCCO2)c1cc2cnccc2[nH]1` [Compound 79, (S)-N-((R)-1-(1H-pyrrolo[3,2-c]pyridin-2-yl)ethyl)-7-(([1,1′-biphenyl]-4-carbonyl)glycyl)-1,4-dioxa-7-azaspiro[4.4]nonane-8-carboxamide], the IC50 fell in the range of 100 to 1000 nM.

As for `O=C(NCC(=O)N1C[C@H](OC(F)F)C[C@H]1C(=O)NCc1cnc2cn[nH]c2c1)c1ccc2c(c1)Oc1ccccc1S2` [Compound 262, (2S,4R)-N-((1H-pyrazolo[4,3-b]pyridin-6-yl)methyl)-4-(difluoromethoxy)-1-((phenoxathiine-3-carbonyl)glycyl)pyrrolidine-2-carboxamide], the IC50 is > 1000 nM.

Consider `Cc1ccc2c(c1)Sc1ccc(C(=O)NCC(=O)N3C[C@H](OC(F)F)C[C@H]3C(=O)N[C@H](C)c3cc4cnccc4[nH]3)cc1O2` [Compound 286, (2S,4R)-N-((R)-1-(1H-pyrrolo[3,2-c]pyridin-2-yl)ethyl)-4-(difluoromethoxy)-1-((8-methylphenoxathiine-3-carbonyl)glycyl)pyrrolidine-2-carboxamide], for which the IC50 was < 100 nM.

As to `Cc1ccc(-c2ccc3c(c2)CN(CC(=O)N2C[C@H](OC(F)F)C[C@H]2C(=O)N[C@H](C)c2cc4cnccc4[nH]2)C3=O)c(C)c1` [Compound 106, (2S,4R)-N-((R)-1-(1H-pyrrolo[3,2-c]pyridin-2-yl)ethyl)-4-(difluoromethoxy)-1-(2-(5-(2,4-dimethylphenyl)-1-oxoisoindolin-2-yl)acetyl)pyrrolidine-2-carboxamide], the half-maximal inhibitory concentration (IC50) was < 100 nM.

As for `COC[C@@H]1C[C@@H](C(=O)N[C@H](C)c2cc3cnccc3[nH]2)N(C(=O)CNC(=O)c2ccc3c(c2)Oc2ccccc2S3)C1` [Compound 149, (2S,4R)-N-((R)-1-(1H-pyrrolo[3,2-c]pyridin-2-yl)ethyl)-4-(methoxymethyl)-1-((phenoxathiine-3-carbonyl)glycyl)pyrrolidine-2-carboxamide], the IC50 is < 100 nM.

As for `Cc1ccc(Oc2cccc(C(=O)NCC(=O)N3C[C@H](OC(F)F)C[C@H]3C(=O)NCc3cc4c(s3)CCNC4)c2)c(F)c1` [Compound 338, (2S,4R)-4-(difluoromethoxy)-1-((3-(2-fluoro-4-methylphenoxy)benzoyl)glycyl)-N-((4,5,6,7-tetrahydrothieno[3,2-c]pyridin-2-yl)methyl) pyrrolidine-2-carboxamide], the IC50 was < 100 nM.

As for `O=C(NCc1cc2cnccc2[nH]1)[C@@H]1C[C@@H](OC(F)F)CN1C(=O)CN1Cc2ncc(-c3ccc(F)cc3F)cc2C1=O` [Compound 135, (2S,4R)-N-((1H-pyrrolo[3,2-c]pyridin-2-yl)methyl)-4-(difluoromethoxy)-1-(2-(3-(2,4-difluorophenyl)-5-oxo-5,7-dihydro-6H-pyrrolo[3,4-b]pyridin-6-yl)acetyl)pyrrolidine-2-carboxamide], the IC50 is > 1000 nM.

As to `O=C(NCC(=O)N1CC2(C[C@H]1C(=O)NCc1cc3ccncc3[nH]1)OCCO2)c1ccc2c(c1)-c1ccccc1C2(F)F` [Compound 9, (S)-N-((1H-pyrrolo[2,3-c]pyridin-2-yl)methyl)-7-((9,9-difluoro-9H-fluorene-3-carbonyl)glycyl)-1,4-dioxa-7-azaspiro[4.4]nonane-8-carboxamide], the concentration for half-maximal inhibition (IC50) lay in the range of 100 to 1000 nM.

Turning to `C[C@@H](NC(=O)[C@@H]1C[C@]2(Cc3nccs3)C[C@@H]2N1C(=O)CNC(=O)c1ccc2c(c1)Oc1ccccc1S2)c1cc2cnccc2[nH]1` [Compound 186, (1S,3S,5S)-N-((R)-1-(1H-pyrrolo[3,2-c]pyridin-2-yl)ethyl)-2-((phenoxathiine-3-carbonyl)glycyl)-5-(thiazol-2-ylmethyl)-2-azabicyclo[3.1.0]hexane-3-carboxamide], the IC50 is < 100 nM.

For `C[C@@]12C[C@@H]1N(C(=O)CNC(=O)c1ccc3c(c1)Oc1ccccc1S3)[C@H](C(=O)NCc1cc3cnccn3c1)C2` [Compound 271, (1S,3S,5S)-5-methyl-2-((phenoxathiine-3-carbonyl)glycyl)-N-(pyrrolo[1,2-a]pyrazin-7-ylmethyl)-2-azabicyclo[3.1.0]hexane-3-carboxamide], the IC50 is < 100 nM.

In general, IC50 refers to the concentration at which inhibition is half-maximal.

(Values after patent US20260062443A1 (ALEXION PHARMACEUTICALS, INC., priority 2022, published 2026).)
